According to PubChem BioAssay (NCI):
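Test compounds were applied to cells in 96-well plates for 48 hours at 5 doses. At the TGI there is no net growth.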

Key:
Assay in all cases: NCI tumour cell line growth inhibition, 48 h
NCI-H522 lung = test system: NCI-H522 lung
UACC-62 melanoma = test system: UACC-62 melanoma
HOP-92 NSCLC = test system: HOP-92 NSCLC
HCT-116 colon = test system: HCT-116 colon
BT-549 breast = test system: BT-549 breast
KM12 colon = test system: KM12 colon
UACC-257 melanoma = test system: UACC-257 melanoma
U251 CNS = test system: U251 CNS
IGROV1 ovarian = test system: IGROV1 ovarian
HS 578T breast = test system: HS 578T breast
DMS 273 small cell lung = test system: DMS 273 small cell lung
A498 renal = test system: A498 renal
HCT-15 colon = test system: HCT-15 colon
MCF7 breast = test system: MCF7 breast
LOX IMVI melanoma = test system: LOX IMVI melanoma
SF-539 CNS = test system: SF-539 CNS
SNB-78 CNS = test system: SNB-78 CNS
DLD-1 colon = test system: DLD-1 colon
HL-60(TB) leukemia = test system: HL-60(TB) leukemia
CCRF-CEM leukemia = test system: CCRF-CEM leukemia
UO-31 renal = test system: UO-31 renal
NCI-H460 lung = test system: NCI-H460 lung
SR leukemia = test system: SR leukemia
DU-145 prostate = test system: DU-145 prostate
ACHN renal = test system: ACHN renal
OVCAR-4 ovarian = test system: OVCAR-4 ovarian
T-47D breast = test system: T-47D breast
PC-3 prostate = test system: PC-3 prostate
786-0 renal = test system: 786-0 renal
MDA-MB-435 = test system: MDA-MB-435
SK-OV-3 ovarian = test system: SK-OV-3 ovarian
RXF 393 renal = test system: RXF 393 renal
SNB-19 CNS = test system: SNB-19 CNS
NCI/ADR-RES ovarian = test system: NCI/ADR-RES ovarian
SK-MEL-28 melanoma = test system: SK-MEL-28 melanoma
MDA-N = test system: MDA-N
SW-620 colon = test system: SW-620 colon
RXF-631 renal = test system: RXF-631 renal
SN12C renal = test system: SN12C renal
OVCAR-5 ovarian = test system: OVCAR-5 ovarian
MALME-3M melanoma = test system: MALME-3M melanoma
XF 498 CNS = test system: XF 498 CNS
SK-MEL-5 melanoma = test system: SK-MEL-5 melanoma
TK-10 renal = test system: TK-10 renal
HOP-62 NSCLC = test system: HOP-62 NSCLC
HCC-2998 colon = test system: HCC-2998 colon
CAKI-1 renal = test system: CAKI-1 renal
NCI-H226 lung = test system: NCI-H226 lung
HT29 colon = test system: HT29 colon
MOLT-4 leukemia = test system: MOLT-4 leukemia
DMS 114 small cell lung = test system: DMS 114 small cell lung
SF-268 CNS = test system: SF-268 CNS
KM20L2 colon = test system: KM20L2 colon
MDA-MB-231 breast = test system: MDA-MB-231 breast
HOP-18 NSCLC = test system: HOP-18 NSCLC
K-562 leukemia = test system: K-562 leukemia
EKVX NSCLC = test system: EKVX NSCLC
M19-MEL melanoma = test system: M19-MEL melanoma
NCI-H23 lung = test system: NCI-H23 lung
OVCAR-8 ovarian = test system: OVCAR-8 ovarian
A549 NSCLC = test system: A549 NSCLC
SNB-75 CNS = test system: SNB-75 CNS
LXFL 529 NSCLC = test system: LXFL 529 NSCLC
OVCAR-3 ovarian = test system: OVCAR-3 ovarian
SF-295 CNS = test system: SF-295 CNS
M14 melanoma = test system: M14 melanoma
COLO 205 colon = test system: COLO 205 colon
SK-MEL-2 melanoma = test system: SK-MEL-2 melanoma
RPMI-8226 leukemia = test system: RPMI-8226 leukemia

## COc1cccc(/C=C2\CCC(CN(C)C)C2=O)c1 (stereo not given)
NCI-H522 lung
  TGI: 6.15 µM
UACC-62 melanoma
  TGI: 20.9 µM
HOP-92 NSCLC
  TGI: 33.9 µM
HCT-116 colon
  TGI: 16 µM
BT-549 breast
  TGI: 15.2 µM
KM12 colon
  TGI: 15.1 µM
UACC-257 melanoma
  TGI: 12.7 µM
U251 CNS
  TGI: 26.5 µM
IGROV1 ovarian
  TGI: 23.4 µM
HS 578T breast
  TGI: > 89.4 µM
DMS 273 small cell lung
  TGI: 26.2 µM
A498 renal
  TGI: 31.5 µM
HCT-15 colon
  TGI: 7.97 µM
MCF7 breast
  TGI: 13.2 µM
LOX IMVI melanoma
  TGI: 3.51 µM
SF-539 CNS
  TGI: 27.9 µM
SNB-78 CNS
  TGI: 66.5 µM
DLD-1 colon
  TGI: 7.81 µM
HL-60(TB) leukemia
  TGI: 2.47 µM
CCRF-CEM leukemia
  TGI: 11.1 µM
UO-31 renal
  TGI: 20.1 µM
NCI-H460 lung
  TGI: 35 µM
SR leukemia
  TGI: 8.43 µM
DU-145 prostate
  TGI: 9.29 µM
ACHN renal
  TGI: 25.5 µM
OVCAR-4 ovarian
  TGI: 22.2 µM
T-47D breast
  TGI: 16.6 µM
PC-3 prostate
  TGI: 27.2 µM
786-0 renal
  TGI: 8.57 µM
MDA-MB-435
  TGI: 7.02 µM
SK-OV-3 ovarian
  TGI: 29.2 µM
RXF 393 renal
  TGI: 12.3 µM
SNB-19 CNS
  TGI: 29.5 µM
NCI/ADR-RES ovarian
  TGI: 6.56 µM
SK-MEL-28 melanoma
  TGI: 8.52 µM
MDA-N
  TGI: 16.8 µM
SW-620 colon
  TGI: 8.52 µM
RXF-631 renal
  TGI: 20.2 µM
SN12C renal
  TGI: 22.8 µM
OVCAR-5 ovarian
  TGI: 29.6 µM
MALME-3M melanoma
  TGI: 14 µM
XF 498 CNS
  TGI: 33.6 µM
SK-MEL-5 melanoma
  TGI: 24.8 µM
TK-10 renal
  TGI: 24.3 µM
HOP-62 NSCLC
  TGI: 21 µM
HCC-2998 colon
  TGI: 24.4 µM
CAKI-1 renal
  TGI: 15.7 µM
NCI-H226 lung
  TGI: 33.6 µM
HT29 colon
  TGI: 40.7 µM
MOLT-4 leukemia
  TGI: 5.19 µM
DMS 114 small cell lung
  TGI: 42.4 µM
SF-268 CNS
  TGI: 33.5 µM
KM20L2 colon
  TGI: 31.7 µM
MDA-MB-231 breast
  TGI: 14 µM
HOP-18 NSCLC
  TGI: 33.2 µM
K-562 leukemia
  TGI: 4.89 µM
EKVX NSCLC
  TGI: 42.1 µM
M19-MEL melanoma
  TGI: 21.5 µM
NCI-H23 lung
  TGI: 27.3 µM
OVCAR-8 ovarian
  TGI: 9.55 µM
A549 NSCLC
  TGI: 42.7 µM
SNB-75 CNS
  TGI: 38.2 µM
LXFL 529 NSCLC
  TGI: 6.45 µM
OVCAR-3 ovarian
  TGI: 11.9 µM
SF-295 CNS
  TGI: 30.8 µM
M14 melanoma
  TGI: 9.62 µM
COLO 205 colon
  TGI: 24.5 µM
SK-MEL-2 melanoma
  TGI: 26.2 µM

## Cc1nc2ccccc2c(=O)n1/N=C(\N=Nc1ccccc1)c1ccccc1Cl
NCI-H522 lung
  TGI: > 74.4 µM
UACC-62 melanoma
  TGI: > 100 µM
HOP-92 NSCLC
  TGI: 64.2 µM
KM12 colon
  TGI: > 100 µM
UACC-257 melanoma
  TGI: > 100 µM
U251 CNS
  TGI: > 100 µM
IGROV1 ovarian
  TGI: > 100 µM
DMS 273 small cell lung
  TGI: > 100 µM
A498 renal
  TGI: > 100 µM
HCT-15 colon
  TGI: > 100 µM
LOX IMVI melanoma
  TGI: > 100 µM
SF-539 CNS
  TGI: 65.2 µM
SNB-78 CNS
  TGI: > 100 µM
DLD-1 colon
  TGI: > 100 µM
HL-60(TB) leukemia
  TGI: > 100 µM
CCRF-CEM leukemia
  TGI: > 100 µM
UO-31 renal
  TGI: > 100 µM
NCI-H460 lung
  TGI: > 100 µM
ACHN renal
  TGI: > 100 µM
OVCAR-4 ovarian
  TGI: > 100 µM
786-0 renal
  TGI: 99.9 µM
SK-OV-3 ovarian
  TGI: 45.8 µM
RXF 393 renal
  TGI: 61.8 µM
SNB-19 CNS
  TGI: > 100 µM
SK-MEL-28 melanoma
  TGI: > 100 µM
SW-620 colon
  TGI: > 100 µM
RXF-631 renal
  TGI: > 100 µM
SN12C renal
  TGI: > 68.1 µM
OVCAR-5 ovarian
  TGI: > 100 µM
MALME-3M melanoma
  TGI: > 100 µM
XF 498 CNS
  TGI: 44.9 µM
SK-MEL-5 melanoma
  TGI: > 100 µM
TK-10 renal
  TGI: > 86.4 µM
HOP-62 NSCLC
  TGI: > 100 µM
HCC-2998 colon
  TGI: > 100 µM
CAKI-1 renal
  TGI: 81.4 µM
NCI-H226 lung
  TGI: > 100 µM
HT29 colon
  TGI: > 100 µM
MOLT-4 leukemia
  TGI: > 100 µM
DMS 114 small cell lung
  TGI: > 90.1 µM
SF-268 CNS
  TGI: > 100 µM
KM20L2 colon
  TGI: > 100 µM
HOP-18 NSCLC
  TGI: 30.1 µM
K-562 leukemia
  TGI: > 100 µM
EKVX NSCLC
  TGI: > 100 µM
M19-MEL melanoma
  TGI: > 100 µM
NCI-H23 lung
  TGI: > 100 µM
OVCAR-8 ovarian
  TGI: > 100 µM
A549 NSCLC
  TGI: > 100 µM
SNB-75 CNS
  TGI: 82.2 µM
LXFL 529 NSCLC
  TGI: > 100 µM
OVCAR-3 ovarian
  TGI: > 100 µM
SF-295 CNS
  TGI: > 100 µM
M14 melanoma
  TGI: > 100 µM
RPMI-8226 leukemia
  TGI: > 100 µM
COLO 205 colon
  TGI: > 100 µM
SK-MEL-2 melanoma
  TGI: 66.3 µM

## N#CC(Sc1ccccc1)C(N)=O (stereo not given)
NCI-H522 lung
  TGI: > 100 µM
UACC-62 melanoma
  TGI: > 100 µM
HOP-92 NSCLC
  TGI: > 100 µM
HCT-116 colon
  TGI: > 100 µM
KM12 colon
  TGI: > 100 µM
UACC-257 melanoma
  TGI: > 100 µM
U251 CNS
  TGI: > 100 µM
IGROV1 ovarian
  TGI: > 100 µM
DMS 273 small cell lung
  TGI: > 100 µM
A498 renal
  TGI: > 100 µM
HCT-15 colon
  TGI: > 100 µM
LOX IMVI melanoma
  TGI: > 100 µM
SF-539 CNS
  TGI: > 100 µM
SNB-78 CNS
  TGI: > 100 µM
DLD-1 colon
  TGI: > 100 µM
HL-60(TB) leukemia
  TGI: > 100 µM
CCRF-CEM leukemia
  TGI: > 100 µM
UO-31 renal
  TGI: > 100 µM
SR leukemia
  TGI: > 100 µM
OVCAR-4 ovarian
  TGI: > 100 µM
786-0 renal
  TGI: > 100 µM
SK-OV-3 ovarian
  TGI: > 100 µM
RXF 393 renal
  TGI: > 100 µM
SNB-19 CNS
  TGI: > 100 µM
SW-620 colon
  TGI: > 100 µM
RXF-631 renal
  TGI: > 100 µM
SN12C renal
  TGI: > 100 µM
OVCAR-5 ovarian
  TGI: > 100 µM
MALME-3M melanoma
  TGI: > 100 µM
XF 498 CNS
  TGI: > 100 µM
SK-MEL-5 melanoma
  TGI: > 100 µM
TK-10 renal
  TGI: > 100 µM
HOP-62 NSCLC
  TGI: > 100 µM
HCC-2998 colon
  TGI: > 100 µM
CAKI-1 renal
  TGI: > 100 µM
NCI-H226 lung
  TGI: > 100 µM
HT29 colon
  TGI: > 100 µM
MOLT-4 leukemia
  TGI: > 100 µM
DMS 114 small cell lung
  TGI: > 100 µM
SF-268 CNS
  TGI: > 100 µM
KM20L2 colon
  TGI: > 100 µM
HOP-18 NSCLC
  TGI: > 100 µM
K-562 leukemia
  TGI: > 100 µM
EKVX NSCLC
  TGI: > 100 µM
M19-MEL melanoma
  TGI: > 100 µM
NCI-H23 lung
  TGI: > 100 µM
OVCAR-8 ovarian
  TGI: > 100 µM
A549 NSCLC
  TGI: > 100 µM
SNB-75 CNS
  TGI: > 100 µM
LXFL 529 NSCLC
  TGI: > 100 µM
OVCAR-3 ovarian
  TGI: > 100 µM
SF-295 CNS
  TGI: > 100 µM
M14 melanoma
  TGI: > 100 µM
RPMI-8226 leukemia
  TGI: > 100 µM
COLO 205 colon
  TGI: > 100 µM
